Assay results taken from patent US8772321B2, “Heteroannelated anthraquinone derivatives for inhibiting cancers” (National Defense Medical Center, priority 2008, dated 2014).

What was measured:
fibroblast 3T3 = experiment: Cell toxicity in non-cancer cell; format: cell-based
From the text: To investigate the cell proliferation inhibition effect of NSC745885 in cancer cells, we compared the cancer cell proliferation inhibition effect of the NSC745885 with well-know bladder anti-cancer agent “Emodin” and clinical cancer chemical therapy agent “Doxorubicin”. The experiment bladder cancer cell lines includes T24 (FIG. 9A, 9D) and MBT2 (FIG. 9 B, 9E). We also confirm the NSC745885 cell toxicity using the non-cancer cell fibroblast 3T3 (FIG. 9C) and normal epithelial cell SV_UC—1 (FIG. 9F).

OVCAR-4 = experiment: NCI 60-cell one dose screen; format: cell-based, human; details: OVCAR-4 (Ovarian cancer); 10^−5M
Method: (§1) NSC745885 was studied as a prototype for anti-proliferative activity against human cancer cell lines in NCI Drug Screen Program (Table 1, below). NSC745885 was evaluated in the full panel of human tumor cell lines derived from nine cancer cell types (leukemia, non-small cell lung cancer, colon cancer, CNS cancer, prostate cancer, melanoma, ovarian cancer, renal cancer and breast cancer). Each subpanel uses several cell lines and dose-response curves were drawn against the decadic logarithm (log 10) of the corresponding drug concentrations for each cell line by the subpanel group. They were also evaluated in the 60 cell line panel and anticancer assay was performed in accordance with the protocol of developmental therapeutics program (one dose mean graph). Results for each compound were reported as the proliferation percentage of the treated cells with that of the untreated control cells being 100. For each of these parameters the averaged values of mean graph midpoint (MG_MID) were calculated.

COLO 205 = experiment: NCI 60-cell one dose screen; format: cell-based, human; details: COLO 205 (Colon cancer); 10^−5M
Method: as §1

HCT-15 = experiment: NCI 60-cell one dose screen; format: cell-based, human; details: HCT-15 (Colon cancer); 10^−5M
Method: as §1

MDA-MB-231/ATCC = experiment: NCI 60-cell one dose screen; format: cell-based, human; details: MDA-MB-231/ATCC (Breast cancer); 10^−5M
Method: as §1

OVCAR-8 = experiment: NCI 60-cell one dose screen; format: cell-based, human; details: OVCAR-8 (Ovarian cancer); 10^−5M
Method: as §1

786-0 = experiment: NCI 60-cell one dose screen; format: cell-based, human; details: 786-0 (Renal cancer); 10^−5M
Method: as §1

SNB-19 = experiment: NCI 60-cell one dose screen; format: cell-based, human; details: SNB-19 (CNS cancer); 10^−5M
Method: as §1

SN12C = experiment: NCI 60-cell one dose screen; format: cell-based, human; details: SN12C (Renal cancer); 10^−5M
Method: as §1

HT29 [1] = experiment: NCI 60-cell one dose screen; format: cell-based, human; details: HT29 (Colon cancer); 10^−5M
Method: as §1

IGROV1 = experiment: NCI 60-cell one dose screen; format: cell-based, human; details: IGROV1 (Ovarian cancer); 10^−5M
Method: as §1

M14 = experiment: NCI 60-cell one dose screen; format: cell-based, human; details: M14 (Melanoma); 10^−5M
Method: as §1

SR = experiment: NCI 60-cell one dose screen; format: cell-based, human; details: SR (Leukemia); 10^−5M
Method: as §1

U251 = experiment: NCI 60-cell one dose screen; format: cell-based, human; details: U251 (CNS cancer); 10^−5M
Method: as §1

A549/ATCC = experiment: NCI 60-cell one dose screen; format: cell-based, human; details: A549/ATCC (Non-small cell lung cancer); 10^−5M; untreated control 100
Method: as §1

MDA-MB468 = experiment: NCI 60-cell one dose screen; format: cell-based, human; details: MDA-MB468 (Breast cancer); 10^−5M
Method: as §1

A498 = experiment: NCI 60-cell one dose screen; format: cell-based, human; details: A498 (Renal cancer); 10^−5M
Method: as §1

UACC-257 = experiment: NCI 60-cell one dose screen; format: cell-based, human; details: UACC-257 (Melanoma); 10^−5M
Method: as §1

MCF7 = experiment: NCI 60-cell one dose screen; format: cell-based, human; details: MCF7 (Breast cancer); 10^−5M
Method: as §1

TK-10 = experiment: NCI 60-cell one dose screen; format: cell-based, human; details: TK-10 (Renal cancer); 10^−5M
Method: as §1

RXF393 = experiment: NCI 60-cell one dose screen; format: cell-based, human; details: RXF393 (Renal cancer); 10^−5M
Method: as §1

NCI-H226 = experiment: NCI 60-cell one dose screen; format: cell-based, human; details: NCI-H226 (Non-small cell lung cancer); 10^−5M
Method: as §1

SF-295 = experiment: NCI 60-cell one dose screen; format: cell-based, human; details: SF-295 (CNS cancer); 10^−5M
Method: as §1

HeLa cells = experiment: Apoptosis: cleaved PARP and caspase 3 immunoblot, DNA fragmentation gel; format: cell-based, human; details: 16 hours
Method: It is well noted that DXR can induce cardiomyocyte death by apoptosis and necrosis. DXR is also involved in other types of cellular processes, such as autophagy and senescence/aging. To investigate induction of apoptosis caused by NSC745885, we adopted DXR as a positive control and examined the levels of cleaved PARP and caspase 3 as apoptotic indicators using immunoblot (FIG. 4A), as well as DNA fragmentation using agarose gel electrophoresis (FIG. 4B). HeLa cells were treated with either DXR or NSC745885 at various doses for 16 hours. Subsequently, the total cellular protein was extracted and immunoblotted with antibodies against the cleaved types of PARP and caspase 3. Additionally, genomic DNA was isolated and analyzed by 2% agarose gel electrophoresis followed by ethidium bromide staining. The results (FIG. 4A and FIG. 4B) are representative of three independent experiments. […] Treatment with NSC745885 decreased protein stability, an effect that appeared to be selective, and was confirmed in other immunoblot analyses (shown in FIG. 6A, lanes 1 and 6).
Cell lysates were prepared in lysis buffer (100 mM Tris-HCl pH 8.0, 150 mM NaCl, 0.1% SDS, and 1% Triton 100) at 4° C., separated by sodium dodecyl sulfate-polyacrylamide gel electrophoresis (SDS-PAGE), and then transferred onto a polyvinylidine difluoride membrane (Millipore, USA). Proteins were detected using antibodies against alpha actinin (ACTN), proliferating cell nuclear antigen (PCNA), p53, p21, cyclin B1, and cyclin D1 (Santa Cruz Biotechnology, USA), YH2A.X (EP854(2)Y, Epitomics, USA), cleaved caspase 3, cleaved poly(ADP-ribose) polymerase (PARP) and LC3B-II (Cell signaling, USA).

HT29 [2] = experiment: NCI 60-cell panel dose-response; format: cell-based; details: Homo sapiens, HT-29; HT29 (Colon cancer)

**Q.** What does the source list for O=C1c2ccccc2C(=O)c2c1ccc1nsnc21 [NSC745885, anthra[2,1-c][1,2,5]thiadiazole-6,11-dione]?
**A.** cell toxicity in normal cell (fibroblast 3T3): no cell toxicity; proliferation percentage (OVCAR-4): −94.43%; proliferation percentage (COLO 205): 111.54%; proliferation percentage (HCT-15): 1.48%; proliferation percentage (MDA-MB-231/ATCC): −17.33%; proliferation percentage (OVCAR-8): −10.07%; proliferation percentage (786-0): −25.98%; proliferation percentage (SNB-19): 78.98%; proliferation percentage (SN12C): −73.27%; proliferation percentage (HT29 [1]): 116.95%; proliferation percentage (IGROV1): −88.34%; proliferation percentage (M14): 74.54%; proliferation percentage (SR): 4.96%; proliferation percentage (U251): −89.26%; proliferation percentage (A549/ATCC): 104.18%; proliferation percentage (MDA-MB468): −73.17%; proliferation percentage (A498): 130.09%; proliferation percentage (UACC-257): −83.07%; proliferation percentage (MCF7): −50.74%; proliferation percentage (TK-10): 96.99%; proliferation percentage (RXF393): 20.11%; proliferation percentage (NCI-H226): 97.80%; proliferation percentage (SF-295): 126.17%; protein levels of cleaved PARP and caspase 3 at high concentration (HeLa cells; 25 μM, compared to DXR): dramatically decreased; induction of apoptosis (cleaved PARP, caspase 3, DNA fragmentation) (HeLa cells; various doses): comparable effect; GI50 (HT29 [2]): 13.4 µM
